The values that follow come from paper PMC9344054, “Studies on Chemical Characterization of Ginkgo Amillaria Oral Solution and Its Drug–Drug Interaction With Piceatannol 3′-O-β-D-Glucopyranoside for Injection” (Frontiers in Pharmacology, 2022).

The subject of one series is UGT2B7. As to the kind of experiment: Metabolism of PG based on UGTs, rat liver microsomes with inhibitor fluconazole. Particulars: PG 10 μmol L−1, fluconazole 50 μmol L−1, p > 0.05. It is filed as in vitro ADME. The protocol:
The incubation mixtures consisted of 1 mg mL^−1 of rat liver microsomes, 1 mmol L^−1 of UDPGA and 10 μmol L^−1 of PG, tris-HCl (pH = 7.4) and inhibitor (pazopanib (50 μmol L^−1)), niflumic acid (10 μmol L^−1), and fluconazole (50 μmol L^−1). The incubation system was the same as that in “2.4.1.,” whereas polydatin (20 μg mL^−1) was selected as the IS. Detection and analysis conditions based on UPLC-QQQ-MS were the same as those in “2.4.2.” The MRM transitions, cone voltage, and collision voltage of the target compounds and IS are shown in Supplementary Table S1.
Background: Liver microsomes are vesicles of endoplasmic reticulum, rich in cytochrome P450 enzymes.

Series [1] in a line: Identification of metabolites of PG in vivo (plasma, bile, urine, feces). Details: species or system rat. Particulars: rats. As for the experimental part: Nine Sprague–Dawley (SD) male rats (200 ± 20 g) were purchased from Beijing Vital River Laboratory Animal Technology Co., Ltd. (license number: SCXK (Beijing) 2016-0006).
The plasma samples were the same as in the pharmacokinetic experiment; PGI (9 mg kg^−1) was injected into the tail vein of three rats to collect the bile samples for 0–6 h, and saline (9 mg kg^−1) was injected into the tail vein of three rats to collect the normal bile samples. PGI (9 mg kg^−1) was injected into the tail vein of three rats to collect urine (0–4 h) samples and feces (0–6 h) samples after collecting the blank urine and feces samples. All samples were stored at −80℃ for further analysis.
Plasma samples: 40 μl of plasma samples at different time points were taken and mixed together in a 2 ml centrifuge tube; 1,280 μl of ice acetonitrile was added. The mixture was vortexed for 3 min and centrifuged at 13,200 × g under 4℃ for 10 min. The supernatant was transferred to another centrifuge tube and dried with nitrogen, re-dissolved with 60 μl of 80% methanol-H2O (v/v). For further LC-MS analysis, 3 μl of the supernatant was injected.
Bile samples: 100 μl of bile sample was taken using a 0.22 μm filter, the mixture was vortexed for 3 min, and centrifuged at 13200 × g under 4℃ for 10 min. For further LC-MS analysis, 3 μl of the supernatant was injected.
Fecal samples: 100 mg of the sample was weighed into a 1.5 ml centrifuge tube, 400 μl of ice acetonitrile was added, and the mixture was vortexed for 3 min and centrifuged at 13,200 × g under 4℃ for 10 min. For further LC-MS analysis, 3 μl of the supernatant was injected.
Urine sample: 600 μl of urine sample was taken out, and 2,400 μl of ice acetonitrile was added. The mixture was vortexed for 3 min and centrifuged at 13,200 × g under 4℃ for 10 min. The supernatant was transferred to another centrifuge tube and dried with nitrogen, re-dissolved with 60 μl of 80% methanol-H2O (v/v). For further LC-MS analysis, 3 μl of the supernatant was injected.
An ultrahigh-performance liquid chromatography-mass spectrometer (Waters, United States) was performed for separation and detection. A Waters ACQUITY UPLC HSS T3 column (2.1 × 100 mm, 1.8 μm) was employed at 30℃ with a flow rate of 0.3 ml min^−1. The mobile phase consisted of acetonitrile (B) and water containing 0.1% FA ([…]). The following linear gradient was used: 0–0.5 min: 5–7% B; 0.5–2.5 min: 7–8.8% B; 2.5–5.5 min: 8.8–16.9% B; 5.5–14 min: 16.9–24.7% B; 14–23 min: 24.7–52% B; and 23–30 min: 52–95% B.
DDA was performed using the Q Exactive™ hybrid quadrupole–Orbitrap mass spectrometer both in negative and positive mode. […]

For series [2] the following is noted: rats, 2020, cited from earlier work.

On to `OC[C@H]1O[C@@H](Oc2cc(/C=C/c3cc(O)cc(O)c3)ccc2O)[C@H](O)[C@@H](O)[C@@H]1O` [PG, Piceatannol-3′-O-β-D-glucopyranoside], for which the “contribution of UGT2B7 to metabolism of PG” value in the series with UGT2B7 is on record as “contributed little or no participation”. In series [1], the “metabolites in fecal samples” value is recorded as “No metabolites were detected”. In addition, the “metabolic route of PG in vivo” value in series [1] (PGI 9 mg kg−1 tail vein) was “mainly undergoes a phase II binding reaction mediated by UGT and SULT”. Also, the “number of metabolites identified in bile” value in series [1] (PGI 9 mg kg−1 tail vein, bile 0–6 h, all phase II) is “five”. Moreover, the “number of metabolites identified in plasma” value in series [1] (PGI 9 mg kg−1 tail vein, all phase II metabolites) is given as “four”. Further, the “excretion of the prototype of PG” value in series [2] (40.0 mg kg−1 PG, tail vein and intragastric administration, ref Xu) was “mainly excreted through urine”. In series [2] (ref Chai, 2019, Xu), the distribution result was “widely distributed”, the elimination rate entry is “fast elimination rate”, the excretion result is reported as “mainly excreted by urine” and the kinetics entry is on record as “linear kinetics”.
